Like-named read-outs stand apart in the source and are kept apart here.
Assays:
[1] = cited from earlier work; for terminal half-life: 2008
[2] = Stability in rat plasma under storage and processing conditions (QC samples, UPLC-MS/MS); conditions: n = 6
Experimental: The stability of plasma samples was validated by the QC samples at three concentration levels in six replicates under various storage and processing conditions: autosampler for 24 h after preprocessing, room temperature for 8 h, −80°C for 30 days, and three freeze-thaw cycles (−80°C to room temperature). The samples were verified to be stable if the deviation of the samples was not more than ±15% of the standard concentration.

[3] = set-up: method as in Kim et al., 2019; conditions: with verapamil (inhibitor of P-gp and CYP3A4); ref Kim et al., 2019; cited from earlier work
[4] = Freeze-thaw stability for three times, high QC (nominal 150 almonertinib, 800 apixaban, 1,500 rivaroxaban ng/mL)
[5] = Freeze-thaw stability for three times, low QC (nominal 1 almonertinib, 2 apixaban, 10 rivaroxaban ng/mL)
[6] = Freeze-thaw stability for three times, medium QC (nominal 80 almonertinib, 400 apixaban, 800 rivaroxaban ng/mL)
[7] = Room temperature for 8 h, high QC (nominal 150 almonertinib, 800 apixaban, 1,500 rivaroxaban ng/mL)
[8] = Room temperature for 8 h, low QC (nominal 1 almonertinib, 2 apixaban, 10 rivaroxaban ng/mL)
[9] = Room temperature for 8 h, medium QC (nominal 80 almonertinib, 400 apixaban, 800 rivaroxaban ng/mL)
[10] = −80°C for 30 days, high QC (nominal 150 almonertinib, 800 apixaban, 1,500 rivaroxaban ng/mL)
[11] = −80°C for 30 days, low QC (nominal 1 almonertinib, 2 apixaban, 10 rivaroxaban ng/mL)
[12] = −80°C for 30 days, medium QC (nominal 80 almonertinib, 400 apixaban, 800 rivaroxaban ng/mL)

## O=C(NC[C@H]1CN(c2ccc(N3CCOCC3=O)cc2)C(=O)O1)c1ccc(Cl)s1 [rivaroxaban, Rivaroxaban]
[1]; (±1 h), each of two drugs, ref Steffel et al., 2021
  time of the maximal blood concentration after oral intake: 2 to 3 h
[1]; after oral administration, ref Kubitza et al., 2005a, Kubitza et al., 2005b, Raghavan et al., 2009
  time to reach maximum plasma concentrations: 2 to 4 h
[1]; elderly subjects, ref Kubitza et al., 2005a, Kubitza et al.
  terminal half-life: 11 to 13 h
[1]; healthy young subjects, ref Kubitza et al., 2005a, Kubitza et al.
  terminal half-life: 5 to 9 h
[2]; [4]
  Stability: Accuracy (RE%): −5.56%
  Stability: measured concentration, Mean ± SD: 1,416.67 ± 48.85 ng/mL
[2]; [5]
  Stability: Accuracy (RE%): 1.13%
  Stability: measured concentration, Mean ± SD: 10.11 ± 0.61 ng/mL
[2]; [6]
  Stability: Accuracy (RE%): −3.21%
  Stability: measured concentration, Mean ± SD: 774.33 ± 23.28 ng/mL
[2]; [7]
  Stability: Accuracy (RE%): −1.11%
  Stability: measured concentration, Mean ± SD: 1,483.33 ± 72.30 ng/mL
[2]; [8]
  Stability: Accuracy (RE%): 7.75%
  Stability: measured concentration, Mean ± SD: 10.78 ± 0.59 ng/mL
[2]; [9]
  Stability: Accuracy (RE%): 4.19%
  Stability: measured concentration, Mean ± SD: 833.50 ± 49.92 ng/mL
[2]; [10]
  Stability: Accuracy (RE%): −4.33%
  Stability: measured concentration, Mean ± SD: 1,435.00 ± 96.07 ng/mL
[2]; [11]
  Stability: Accuracy (RE%): 6.83%
  Stability: measured concentration, Mean ± SD: 10.68 ± 0.22 ng/mL
[2]; [12]
  Stability: Accuracy (RE%): −4.38%
  Stability: measured concentration, Mean ± SD: 765.00 ± 58.14 ng/mL
[3]
  increase of systemic exposure of rivaroxaban: 2.8 fold

— PMC10582335 (Frontiers in Pharmacology, 2023)
